From PMC13192270, “RhlR quorum-sensing receptor ligand sensitivity regulates the differential expression of phenazine genes in Pseudomonas aeruginosa” (Journal of Bacteriology, 2026)

Target: T1, RhlR T58L in ΔrhlI strain (Pseudomonas aeruginosa, UniProt P54292, T58L)
T1 construct: expressed in transfected cells; host or cells: P. aeruginosa UCBPP-PA14 ΔrhlI, mutant allele placed on the chromosome at the native rhlR locus
T1 sequence (P54292 1-241 T58L): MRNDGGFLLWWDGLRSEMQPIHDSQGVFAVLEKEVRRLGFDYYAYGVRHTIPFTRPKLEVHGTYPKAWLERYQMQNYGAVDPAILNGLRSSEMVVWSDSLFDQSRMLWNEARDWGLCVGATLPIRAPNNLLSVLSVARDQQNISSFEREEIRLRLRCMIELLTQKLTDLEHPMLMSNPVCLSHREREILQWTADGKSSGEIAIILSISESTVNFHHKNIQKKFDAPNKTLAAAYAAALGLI
Experiment: ChIP-seq of RhlR-binding sites
Assay type: cell-based
Conditions: 2 µM C4HSL
Source text: To determine the molecular basis for lower levels of phz gene expression in a background that expressed a hypersensitive variant of RhlR, we assessed expression of the pqsABCDE operon ([51]). PqsE is required for optimal expression of the phz genes and, thus, pyocyanin production. RhlR was previously characterized as a repressor of the pqsABCDE operon. We hypothesized that a C4HSL hypersensitive variant would repress pqsABCDE expression, which could lead to the observed decrease in phz gene expression. Indeed, pqsA RNA levels were 20% lower in a strain expressing RhlR T58L compared to WT RhlR (Fig. 6A; Table 2). To confirm that the decrease in gene expression led to a decrease in the available PqsE protein that was capable of interacting with RhlR to specifically drive it to the phz promoter, we performed western blot analyses to measure PqsE protein levels in strains expressing RhlR variants (Fig. 7A). […] Thus, we hypothesized that when PqsE levels fall below a certain concentration, PqsE homodimerization cannot occur, thereby preventing PqsE-RhlR complex formation and reducing promoter occupancy. […] We highlight phzA1 and phzM, which share a promoter (Fig. S10A), rhlA (Fig. S10B), and lecB (Fig. S10C) because of the role of the phz and rhlA promoters in regulating pyocyanin and rhamnolipid production (Fig. 5) and because lecB is a well-characterized PqsE-dependent promoter ([37]). As expected, RhlR T58L had lower promoter occupancy than WT RhlR at the phzA1 promoter, likely due to the lower levels of PqsE present (Fig. 7B; Fig. S10A). Conversely, RhlR occupancy at the rhlA promoter was nearly unchanged from WT RhlR (Fig. 7B; Fig. S10B), reflecting the ability of RhlR to bind the promoter primarily through its dependency on C4HSL.
P. aeruginosa strains were grown overnight, back diluted 1:100 in fresh LB media, and grown to an OD600 = 2.0. Crosslinking, lysis, and immunoprecipitation were performed as previously described ([37]).

CCCC(=O)N[C@H]1CCOC1=O [C4HSL, N-butyryl-L-homoserine lactone]
ChIP-seq enrichment at PA14_01490 (rahU) (peak 139,733): 1,262.3 | ChIP-seq enrichment at PA14_06320 (peak 560,072): 896.4 | ChIP-seq enrichment at PA14_10360 (peak 895,433): 513.5 | ChIP-seq enrichment at PA14_16100*, PA14_16110 (peak 1,372,370): 1,439.9 | ChIP-seq enrichment at PA14_18800 (peak 1,620,628): 405.8 | ChIP-seq enrichment at PA14_18810 operon (peak 1,621,028): 87.2 | ChIP-seq enrichment at PA14_20130, PA14_20140 (fpr) (peak 1,735,823): 380.5 | ChIP-seq enrichment at PA14_21020 (azeB) operon, PA14_21030 (peak 1,816,906): 3,188.5 | ChIP-seq enrichment at PA14_22090 (peak 1,921,598): 349.8 | ChIP-seq enrichment at PA14_28250*, PA14_28260 (peak 2,444,398): 159.5 | ChIP-seq enrichment at PA14_29620, fhp operon (peak 2,568,048): 2,263.3 | ChIP-seq enrichment at PA14_30570, PA14_30580 (vqsR) (peak 2,647,472): 554.8 | ChIP-seq enrichment at PA14_30840* (peak 2,677,542): 4,222.3 | ChIP-seq enrichment at PA14_37745 operon (peak 3,364,761): 433.4 | ChIP-seq enrichment at PA14_48140 operon (peak 4,285,523): 340.9 | ChIP-seq enrichment at PA14_48530 operon (peak 4,313,855): 867.6 | ChIP-seq enrichment at PA14_49310 (peak 4,382,169): 673.4 | ChIP-seq enrichment at PA14_49740, PA14_49750 operon (peak 4,425,570): 2,142.3 | ChIP-seq enrichment at PA14_57970*, PA14_57980 (peak 5,159,548): 228.8 | ChIP-seq enrichment at PA14_59180* (peak 5,268,881): 216.4 | ChIP-seq enrichment at PA_48530* (peak 4,314,560): 229 | ChIP-seq enrichment at arcD operon (peak 6,093,032): 900.8 | ChIP-seq enrichment at hcnA operon, exoY (peak 3,236,436): 1,543.7 | ChIP-seq enrichment at hsiA2 operon, hcpD (peak 3,831,541): 1,100.7 | ChIP-seq enrichment at lasA (peak 3,600,666): 211.7 | ChIP-seq enrichment at lasB (peak 1,387,361): 347.7 | ChIP-seq enrichment at lecB, PA14_20620 operon (peak 1,774,336): 13,604.8 | ChIP-seq enrichment at pa1L (peak 2,721,761): 171.4 | ChIP-seq enrichment at peak 5,414,219: 697 | ChIP-seq enrichment at phzA1 operon, phzM (peak 813,529): 2,515.8 | ChIP-seq enrichment at phzA2 operon (peak 3,561,969): 562.6 | ChIP-seq enrichment at phzB1*, phzC1 (peak 812,427): 968.1 | ChIP-seq enrichment at phzB2*, phzC2 (peak 3,561,157): 75.06 | ChIP-seq enrichment at phzH (peak 64,211): 800.4 | ChIP-seq enrichment at rhlA operon (peak 1,648,391): 3,584.5 | ChIP-seq enrichment at rhlI (peak 1,651,804): 263.1 | ChIP-seq enrichment at rmlB operon (peak 6,082,366): 2,634 | ChIP-seq enrichment at rpsL operon (peak 754,615): 416.1 | ChIP-seq enrichment at tnpS, tnpT operon (peak 3,188,223): 237.1
